According to paper PMC11467779, “New anti-ovarian cancer quinolone derivatives acting by modulating microRNA processing machinery” (RSC Medicinal Chemistry, 2024):

Experiments:
A2780 = assay: Antiproliferative effect against A2780 (GI50); assay type: cell-based; details: Homo sapiens, 72 hours of treatment, cell count
Protocol: SKOV-3, A2780 and A2780 CIS were cultured and maintained, as previously described,[50] at 37 °C in RPMI 1640 medium (Euroclone) supplemented with 10% fetal bovine serum (FBS; Euroclone), L-glutamine and penicillin/streptomycin (SIGMA-ALDRICH). OVCA433, HEK-293T, HeLa, HCCLM3, SK-Hep-1, MCF-7, A549 and HCT-116 cells were maintained in DMEM medium (Euroclone) containing 10% FBS (Euroclone), L-glutamine and penicillin/streptomycin (SIGMA-ALDRICH). Wi-38 cells were cultured in DMEM medium (Euroclone) supplemented with 10% FBS (Euroclone), L-glutamine and penicillin/streptomycin (SIGMA-ALDRICH), and 1% non-essential amino acids (NEAA; Euroclone). The cultures were maintained in a constant temperature incubator at 37 °C with 5% CO2. […] Once cell adhesion had been promoted, the compounds were added to the culture medium. After 72 hours of treatment, the cells were counted, and the data analyzed by linear regression. Each experiment was carried out three times in triplicate and three separate cell counts were made for each sample. […] Afterwards, the concentration range was narrowed to the relative value obtained in the first evaluation in order to obtain an accurate value.

[1] = test system: shRNA to siRNA maturation (GAPDH mRNA); assay: RNAi enhancing activity (shRNA to siRNA maturation, GAPDH mRNA in HEK-293T_shGAPDH); assay type: cell-based, human; details: 50 μM, 48 hours
Protocol: HEK-293T_shSCR and HEK-293T_shGAPDH were treated with 50 μM of enoxacin and 33 for 48 hours before RNA extraction and expression analysis.
Lentiviral particles were produced by calcium phosphate transient transfection of HEK-293T cells with specific lentiviral plasmids (shGAPDH: TRCN0000445616 and shSCR: TRCN0000015937 from SIGMA-ALDRICH) together with the packaging plasmids (pLP1and pLP2) and the envelope plasmid pLP/VSVG. For each lentiviral plasmid one 150 mm plate of HEK293T cells was used for transfection. After 14–16 hours the medium was replaced with complete medium supplemented with 1 mM sodium butyrate (SIGMA-ALDRICH). The collection of medium containing lentiviral particles occurs 48 h and 72 h after transfection; complete medium supplemented with sodium butyrate was added after the first collection. […]
Total RNA was extracted using the Direct-zol RNA MiniPrep kit (Zymo Research) with on-column DNase treatment, according to the manufacturer's instructions. Reverse transcription was carried out with SuperScript VILO cDNA Synthesis Kit (Life Technologies) and the cDNA samples were analyzed by qRT-PCR using PowerUp SYBR Green Master Mix (Thermo Fisher Scientific). For miR-21 expression analysis total RNA was retrotranscribed using miRCURY® LNA® RT Kit (Qiagen) and the cDNA was analyzed by using miRCURY® LNA® miRNA PCR Assay (Qiagen). […]

KO TRBP HCCLM3 cells = assay: Antiproliferative effect on KO TRBP HCCLM3 cells (CCK-8); assay type: cell-based, human; details: 30 μM, 48 hours
Protocol: HCCLM3 and SK-Hep-1 cells were seeded into 96-well plates at a density of 10 000 cells per well and allowed to adhere overnight. Subsequently, the cells were treated with the following substances: 0.1% DMSO as the negative control, various concentrations of the test compounds, and 125 μM enoxacin as the positive control. After 48 h of incubation, the original culture medium was removed, and the cells were washed twice with PBS. Then, 100 μL of DMEM culture medium containing 10% CCK-8 (Bimake, USA) was added to each well. The plates were incubated for 30 minutes at 37 °C. To determine the […], measurements were taken at a wavelength of 450 nm using a Varioskan from Thermo Fisher Scientific.

SKOV-3 cells = assay: SKOV-3 cell number, cell death and apoptosis markers (trypan blue, Western blot); assay type: cell-based, human; details: 30 μM, 72 hours

GI50 (A2780): 18.1 ± 8.25 µM
Compound: O=C(O)c1cn(C2CC2)c2cc(N3CCc4ccccc4C3)c(F)cc2c1=O [Compound 33, 1-Cyclopropyl-7-(3,4-dihydroisoquinolin-2(1H)-yl)-6-fluoro-4-oxo-1,4-dihydroquinoline-3-carboxylic acid]
RNAi enhancing effect (GAPDH mRNA decrease) [1]: modest but significant RNAi enhancing effect | antiproliferative effect on KO TRBP HCCLM3 cells (KO TRBP HCCLM3 cells): no antiproliferative effect | c-PARP and Bcl-XL in SKOV-3 cells (SKOV-3 cells; Western blot): No changes | total number of SKOV-3 cells (SKOV-3 cells; trypan blue): greatly reduced
